Laboratory results: patent publication US11242337B2, “Compounds useful for treating gastrointestinal tract disorders” (Ardelyx, Inc., priority 2017, dated 2022)

Columns and labels:
[1] = test system: absorption of sodium from the intestinal lumen; experiment: Inhibition of intestinal sodium absorption in rats; format: in vivo, Sprague Dawley rats; conditions: 13-hours post-dose; for response vs control in vivo at 0.03 mg/kg: oral gavage 0.03 mg/kg; for response vs control in vivo at 0.1 mg/kg: oral gavage 0.1 mg/kg; for FFS (1-5): rats, group median fecal form score, 1 normal pellet to 5 liquid fecal streams; for response vs control in vivo at 0.3 mg/kg: oral gavage 0.3 mg/kg
Protocol: Urinary sodium excretion and fecal form were measured to assess the ability of selected example compounds to inhibit the absorption of sodium from the intestinal lumen. Eight-week old, male, Sprague Dawley rats were purchased from Envigo (Livermore, Calif.), were housed 2 per cage and acclimated for at least 48 hours before study initiation. Animals were fed. Harlan Teklad Global TD.160470 rodent chow (Madison, Wis.), standard laboratory rodent chow Harlan Teklad Global 2018 with the addition of 0.4% inorganic phosphorous. Animals had ad libitum access to food and water for the duration of the study and were maintained in a temperature and humidity controlled room on a standard light/dark cycle of 6 AM to 6 PM. On the day of study initiation, rats (n=5/group) were dosed by oral gavage with test compound or vehicle (3 mM HCl, 0.01% Tween80) at a dose volume of […]. Immediately after dose administration animals were placed in individual metabolic cages. At 13-hours post-dose, urine samples were collected and fecal form was assessed. In addition, the weight of food consumed over the 13-hour period was measured and recorded. Fecal forms were scored according to a common scale associated with increasing fecal water to the wettest observation in the cage's collection funnel (1, normal pellet; 2, pellet adhering to sides of collection funnel due to moisture; 3, loss of normal pellet shape; 4, complete loss of shape with a blotting pattern; 5, liquid fecal streams evident). Fecal form score (FFS) was calculated for each group as the median of each individual rat's FFS within the group and reported in Table 7. Fecal samples were dried using a lyophilizer for at least 3 days, following which dry weight was recorded and fecal fluid content was calculated based on the difference between the wet and dry stool weights. Fecal fluid content was calculated as a change from the vehicle group mean. For urine samples, the volumes were determined gravimetrically. Urine samples were analyzed on an ion chromatography system (Thermo Fisher ICS-3000 or ICS-5000+) coupled with conductivity detectors. Chromatographic separation of cations was performed using an IonPac CS12A (Thermo Fisher) 2×250 mm analytical column with an isocratic elution using 25 mM methanesulfonic acid. Concentrations were interpolated from a standard curve (prepared in 10 mM HCl) for sodium based on retention time and peak area. Thirteen-s-hour urinary sodium excretion (mg/13-hours) was calculated by multiplying urinary sodium concentration by 13-hour urine volume. The urinary sodium excretion of compound treatment was normalized to dietary sodium intake and expressed as a percentage of the vehicle mean.

gastrointestinal transit = experiment: Restoration of gastrointestinal motility in opioid induced constipation (loperamide); format: in vivo, mice; conditions: loperamide s.c., Evans Blue small intestinal transit 30 minutes
Protocol: Approximately eight-week old, female, CD1 […] are purchased from Envigo (Livermore, Calif.), are housed 4 per cage and acclimated for at least 48 hours before study initiation. Animals are fed standard laboratory rodent chow Harlan Teklad Global 2018 (Madison, Wis.). Animals have ad libitum access to food and water for the duration of the acclimation period and are maintained in a temperature and humidity controlled room on a standard light/dark cycle of 6 AM to 6 PM. Following an overnight fast, with free access to water, animals are dosed by oral gavage with varying doses of test compound or vehicle (3 mM HCl, 0.01% Tween80), at a dose volume of 5 mL/kg. […] For an individual animal, the length travels by the Evans Blue dye front is divided by the length of the whole small intestine, measured from the pylorus to the cecum, and multiplied by 100, to provide the distance of the small intestine travelled by the dye as a percentage.

[2] = Rattus norvegicus, Sprague Dawley rats, read-out: Urinary Na (% of Vehicle, out/in)

Row | SMILES | response vs control in vivo at 0.003 mg/kg ([1]; Rattus norvegicus, Sprague Dawley rats, oral gavage 0.003 mg/kg, read-out: Urinary Na (% of Vehicle, out/in)) [%] | response vs control in vivo at 0.01 mg/kg ([1]; Rattus norvegicus, Sprague Dawley rats, oral gavage 0.01 mg/kg, read-out: Urinary Na (% of Vehicle, out/in)) [%] | response vs control in vivo at 0.03 mg/kg [1, 2] [%] | response vs control in vivo at 0.1 mg/kg [1, 2] [%] | FFS (1-5) ([1]; 0.003 mg/kg) | FFS (1-5) ([1]; 0.01 mg/kg) | FFS (1-5) ([1]; 0.03 mg/kg) | FFS (1-5) ([1]; 0.1 mg/kg) | % Restoration of Transit (gastrointestinal transit; oral gavage 15 mg/kg) | % Restoration of Transit (gastrointestinal transit; oral gavage 1.5 mg/kg) | % Restoration of Transit (gastrointestinal transit; oral gavage 5 mg/kg) | response vs control in vivo at 0.3 mg/kg [1, 2] [%] | FFS (1-5) ([1]; 0.3 mg/kg)
1 | N#Cc1cc(Cl)cc2c1C[C@H](N1CCNCC1)[C@H]2Oc1ccc(S(=O)(=O)NCCOCCOCCNC(=O)NCCCCNC(=O)NCCOCCOCCNS(=O)(=O)c2ccc(O[C@H]3c4cc(Cl)cc(C#N)c4C[C@@H]3N3CCNCC3)cc2)cc1 [Example 41, 3-[2-(2-[2-[(4-[[(1S,2S)-6-Chloro-4-cyano-2-(piperazin-1-yl)-2,3-dihydro-1H-inden-1-yl]oxy]benzene)sulfonamido]ethoxy]ethoxy)ethyl]-1-[4-([[2-(2-[2-[(4-[[(1S,2S)-6-chloro-4-cyano-2-(piperazin-1-yl)-2,3-dihydro-1H-inden-1-yl]oxy]benzene)sulfonamido]ethoxy]ethoxy)ethyl]carbamoyl]amino)butyl]urea; bis(trifluoroacetic acid)] | > 70 | > 70 | 40 to 70 | < 40 | 2 | 2 | 2 | 5 | A (<20%) |  |  |  | 
2 | N#Cc1cc(Cl)cc2c1C[C@H](N1CCNCC1)[C@H]2Oc1ccc(S(=O)(=O)NCCOCCOCCNC(=O)NCCCCNC(=O)NCCOCCOCCNS(=O)(=O)c2ccc(O[C@H]3c4cc(Cl)cc(C#N)c4C[C@@H]3N3CCNCC3)c(F)c2)cc1F [Example 43, 3-[2-(2-[2-[(4-[[(1S,2S)-6-Chloro-4-cyano-2-(piperazin-1-yl)-2,3-dihydro-1H-inden-1-yl]oxy]-3-fluorobenzene)sulfonamido]ethoxy]ethoxy)ethyl]-1-[4-([[2-(2-[2-[(4-[[(1S,2S)-6-chloro-4-cyano-2-(piperazin-1-yl)-2,3-dihydro-1H-inden-1-yl]oxy]-3-fluorobenzene)sulfonamido]ethoxy]ethoxy)ethyl]carbamoyl]amino)butyl]urea; bis(trifluoroacetic acid)] |  |  |  |  |  |  |  |  | A (<20%) | B (20-40%) | A (<20%) |  | 
3 | N#Cc1cc(Cl)cc2c1C[C@H](N1CCNCC1)[C@H]2Oc1ccc(S(=O)(=O)N[C@H]2CCN(CCOCCNC(=O)NCCCCNC(=O)NCCOCCN3CC[C@H](NS(=O)(=O)c4ccc(O[C@H]5c6cc(Cl)cc(C#N)c6C[C@@H]5N5CCNCC5)cc4)C3)C2)cc1 [Example 107, 4-([(1S,2S)-6-Chloro-4-cyano-2-(piperazin-1-yl)-2,3-dihydro-1H-inden-1-yl]oxy)-N—[(S)-1-(20-[(S)-3-([4-([(1S,2S)-6-chloro-4-cyano-2-(piperazin-1-yl)-2,3-dihydro-1H-inden-1-yl]oxy)phenyl]sulfonamido)pyrrolidin-1-yl]-7,14-dioxo-3,18-dioxa-6,8,13,15-tetraazaicosyl)pyrrolidin-3-yl]benzenesulfonamide; tetra(trifluoroacetate)] |  |  | 40 to 70 | 40 to 70 |  |  | 3 | 3 |  |  |  | < 40 | 3
4 | N#Cc1cc(Cl)cc2c1C[C@H](N1CCNCC1)[C@H]2Oc1ccc(S(=O)(=O)N2CCC(NC(=O)CCCNC(=O)NCCCCNC(=O)NCCCC(=O)NC3CCN(S(=O)(=O)c4ccc(O[C@H]5c6cc(Cl)cc(C#N)c6C[C@@H]5N5CCNCC5)cc4)CC3)CC2)cc1 [Example 120, N^1,N^18-Bis(1-([4-([(1S,2S)-6-chloro-4-cyano-2-(piperazin-1-yl)-2,3-dihydro-1H-inden-1-yl]oxy)phenyl]sulfonyl)piperidin-4-yl)-6,13-dioxo-5,7,12,14-tetraazaoctadecanediamide] |  |  | > 70 | 40 to 70 |  |  | 2 | 3 |  |  |  | < 40 | 4
5 | CN(C)[C@H]1CCCN([C@H]2Cc3c(C#N)cc(Cl)cc3[C@@H]2Oc2ccc(S(=O)(=O)NCCOCCOCCNC(=O)NCCCCNC(=O)NCCOCCOCCNS(=O)(=O)c3ccc(O[C@H]4c5cc(Cl)cc(C#N)c5C[C@@H]4N4CCC[C@H](N(C)C)C4)cc3)cc2)C1 [Example 122, 4-([(1S,2S)-6-Chloro-4-cyano-2-[(S)-3-(dimethylamino)piperidin-1-yl]-2,3-dihydro-1H-inden-1-yl]oxy)-N-[26-([4-([(1S,2S)-6-chloro-4-cyano-2-[(S)-3-(dimethylamino)piperidin-1-yl]-2,3-dihydro-1H-inden-1-yl]oxy)phenyl]sulfonamido)-10,17-dioxo-3,6,21,24-tetraoxa-9,11,16,18-tetraazahexacosyl]benzenesulfonamide] |  |  | > 70 | > 70 |  |  | 2 | 2 |  |  |  | 40 to 70 | 3
6 | C[C@@H]1CN([C@H]2Cc3c(C#N)cc(Cl)cc3[C@@H]2Oc2ccc(S(=O)(=O)N[C@@H]3CCN(CCOCCNC(=O)NCCCCNC(=O)NCCOCCN4CC[C@@H](NS(=O)(=O)c5ccc(O[C@H]6c7cc(Cl)cc(C#N)c7C[C@@H]6N6CCN[C@H](C)C6)cc5)C4)C3)cc2)CCN1 [Example 133, 4-([(1S,2S)-6-Chloro-4-cyano-2-[(R)-3-methylpiperazin-1-yl]-2,3-dihydro-1H-inden-1-yl]oxy)-N—[(R)-1-(20-[(R)-3-([4-([(1S,2S)-6-chloro-4-cyano-2-[(R)-3-methylpiperazin-1-yl]-2,3-dihydro-1H-inden-1-yl]oxy)phenyl]sulfonamido)pyrrolidin-1-yl]-7,14-dioxo-3,18-dioxa-6,8,13,15-tetraazaicosyl)pyrrolidin-3-yl]benzenesulfonamide; bis(trifluoroacetic acid)] |  |  | > 70 | < 40 |  |  | 3 | 3 |  |  |  | < 40 | 3
7 | N#Cc1cc(Cl)cc2c1C[C@H](N1CCNCC1)[C@H]2Oc1ccc(S(=O)(=O)N[C@H]2CCN(C(=O)CCCNC(=O)NCCCCNC(=O)NCCCC(=O)N3CC[C@H](NS(=O)(=O)c4ccc(O[C@H]5c6cc(Cl)cc(C#N)c6C[C@@H]5N5CCNCC5)cc4)C3)C2)cc1 [Example 143, 4-([(1S,2S)-6-Chloro-4-cyano-2-(piperazin-1-yl)-2,3-dihydro-1H-inden-1-yl]oxy)-N—[(S)-1-(18-[(S)-3-([4-([(1S,2S)-6-chloro-4-cyano-2-(piperazin-1-yl)-2,3-dihydro-1H-inden-1-yl]oxy)phenyl]sulfonamido)pyrrolidin-1-yl]-6,13,18-trioxo-5,7,12,14-tetraazaoctadecanoyl)pyrrolidin-3-yl]benzenesulfonamide] |  |  | 40 to 70 | < 40 |  |  | 3 | 3 |  |  |  | < 40 | 4
